BindingDB's records for doi:10.1038/42506 (The University of Tokyo, 1997)

Molecular target: T1, Leukotriene B4 receptor 2 (Homo sapiens, UniProt Q9NPC1)
T1 sequence (Q9NPC1 whole entry): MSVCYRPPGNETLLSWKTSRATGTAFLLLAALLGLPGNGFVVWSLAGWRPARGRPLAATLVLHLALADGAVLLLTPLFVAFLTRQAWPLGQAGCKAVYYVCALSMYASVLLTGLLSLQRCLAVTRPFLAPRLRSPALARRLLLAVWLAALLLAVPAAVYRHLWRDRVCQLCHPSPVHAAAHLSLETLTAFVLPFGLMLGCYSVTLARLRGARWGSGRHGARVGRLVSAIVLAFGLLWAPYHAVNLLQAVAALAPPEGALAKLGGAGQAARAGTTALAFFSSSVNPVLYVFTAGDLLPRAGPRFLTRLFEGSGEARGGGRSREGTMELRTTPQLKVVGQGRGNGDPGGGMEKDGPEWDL

Structure (SMILES)	Ki
O=C(O)CCCC(O)C=CC=CC=CC(O)CC=CCCCCCO (stereo not given) [NSC_1589]	7.6 nM
CCCCCCC=CC(=O)C=CC=CC=CC(O)CCCC(=O)O (stereo not given) [CAS_5280876]	7.6 nM
O=C(O)CCCCCC=CCC(O)C=CC=CC=CC(O)CCCC(=O)O (stereo not given) [NSC_128572]	190 nM

The remaining lines, values ahead:

Ki	Structure (SMILES)
1200 nM	COc1ccc(/C=C/CCCCOc2cccc(OCCCCC(=O)O)c2CCC(=O)O)cc1 [ONO 4057]
120 nM	CCCCC/C=C\C[C@H](O)/C=C/c1cccc(C[C@H](O)CCCCO)n1 [(5R)-6-[6-[(1E,3S,5Z)-3-hydroxyundeca-1,5-dienyl]pyridin-2-yl]hexane-1,5-diol]
